target: NLRP3 inflammasome (Homo sapiens (Human), UniProt Q96P20); assay: Evaluation of NLRP3 inflammasome inhibitory activity (inhibition of IL-1β production in LPS/Nigericin-stimulated THP1-Null cells); assay type: cell-based; settings: IL-1β production in THP1-Null cells, PMA, LPS 1 μg/mL, Nigericin 7.5 μmol/L, AlphaLISA
How it was run: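 THP1-Null cells primed with 1 μg/mL LPS, then treated with test compound; supernatant IL-1β quantified by AlphaLISA. Inhibition calculated with blank wells as 100% and control wells as 0%.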

Sequence of NLRP3 inflammasome (Q96P20 whole entry): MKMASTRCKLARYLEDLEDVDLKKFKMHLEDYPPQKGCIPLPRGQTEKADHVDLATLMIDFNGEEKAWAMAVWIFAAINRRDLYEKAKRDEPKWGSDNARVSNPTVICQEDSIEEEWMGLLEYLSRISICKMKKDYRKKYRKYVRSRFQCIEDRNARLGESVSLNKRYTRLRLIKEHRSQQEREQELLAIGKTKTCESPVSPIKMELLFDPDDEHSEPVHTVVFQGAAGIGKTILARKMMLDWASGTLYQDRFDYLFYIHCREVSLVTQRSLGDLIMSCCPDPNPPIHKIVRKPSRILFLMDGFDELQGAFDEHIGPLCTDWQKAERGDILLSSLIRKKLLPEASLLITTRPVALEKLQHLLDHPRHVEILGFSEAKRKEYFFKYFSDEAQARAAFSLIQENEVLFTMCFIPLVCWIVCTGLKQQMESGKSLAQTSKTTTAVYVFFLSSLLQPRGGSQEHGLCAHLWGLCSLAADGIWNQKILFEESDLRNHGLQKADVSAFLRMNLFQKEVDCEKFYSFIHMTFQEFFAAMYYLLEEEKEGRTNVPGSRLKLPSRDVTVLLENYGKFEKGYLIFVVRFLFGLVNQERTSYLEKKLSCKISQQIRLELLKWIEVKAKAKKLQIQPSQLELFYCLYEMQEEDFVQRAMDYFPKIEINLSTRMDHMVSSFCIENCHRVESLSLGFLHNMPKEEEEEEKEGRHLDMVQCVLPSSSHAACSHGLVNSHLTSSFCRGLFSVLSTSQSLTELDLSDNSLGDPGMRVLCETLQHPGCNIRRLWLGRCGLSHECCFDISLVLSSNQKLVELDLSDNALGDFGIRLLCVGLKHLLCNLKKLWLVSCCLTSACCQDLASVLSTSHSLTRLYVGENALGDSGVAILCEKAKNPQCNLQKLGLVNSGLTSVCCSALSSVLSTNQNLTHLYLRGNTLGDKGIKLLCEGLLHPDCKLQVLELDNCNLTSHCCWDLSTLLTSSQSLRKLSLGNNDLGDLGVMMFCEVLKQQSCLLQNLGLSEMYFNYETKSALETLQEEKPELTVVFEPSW

`Cc1cc(C)c(-n2cc3c(=O)[nH]c(N4CCC(O)CC4)nc3n2)c(C)c1` [Example 105] and `Cc1cc(C)c(-n2cc3c(=O)[nH]c(N4CCC(N(C)C)C4)nc3n2)c(C)c1` (racemic) [Example 113] are within 1.5-fold of each other in IC50: 64 nM for the first, 63 nM for the second.

Going from `Cc1cc(Br)cc(C)c1-n1cc2c(=O)[nH]c(N3CCOC(O)C3)nc2n1` (racemic) [Example 364] to `Cc1cc(Br)cc(C)c1-n1cc2c(=O)[nH]c(N3CCC(C#N)C3)nc2n1` (racemic) [Example 323], the IC50 falls from 66 nM to 6.4 nM (10-fold).

`O=c1[nH]c(N2CCCC2)nc2nn(-c3ccc(Cl)cc3Cl)cc12` [Example 127] and `C#Cc1ccc(-n2cc3c(=O)[nH]c(N4CCCC4)nc3n2)c(C)c1` [Example 119] are within 1.5-fold of each other in IC50: 13 nM for the first, 16 nM for the second.

Going from `Cc1cc(C2CC2)cc(Cl)c1-n1cc2c(=O)[nH]c(N3C[C@H]4C[C@@H]3CO4)nc2n1` [Example 287] to `Cc1cc(C2CC2)cc(F)c1-n1cc2c(=O)[nH]c(N3C[C@@H]4C[C@H]3CO4)nc2n1` [Example 300], the IC50 rises from 9.6 nM to 15 nM (1.6-fold). The first is the more potent here.

`COCC(=O)N1CC2CC1CN2c1nc2nn(-c3c(C)cc(C4CC4)cc3C)cc2c(=O)[nH]1` (racemic) [Example 234] and `CO[C@H]1CCN(c2nc3nn(-c4c(C)cc(C5CC5)cc4C)cc3c(=O)[nH]2)C1` [Example 319] are the same in IC50: 24 nM for the first, 24 nM for the second.

First: O=c1[nH]c(N2CCOCC2)nc2nn(-c3ncc(C(F)(F)F)cc3Br)cc12 [Example 201]
Second: Cc1cc(C(F)(F)F)ncc1-n1cc2c(=O)[nH]c(N3CCOCC3)nc2n1 [Example 98, 2-(4-methyl-6-(trifluoromethyl)pyridin-3-yl)-6-morpholino-2,5-dihydro-4H-pyrazolo[3,4-d]pyrimidin-4-one]
The IC50 of the first is 3.5-fold higher: 190 nM for the first, 54 nM for the second.

`Cc1cc(Br)cc(C)c1-n1cc2c(=O)[nH]c(N3CCN(C)CC3)nc2n1` [Example 246] and `Cc1cc(C(C)C)cc(C)c1-n1cc2c(=O)[nH]c(N3CCOCC3)nc2n1` [Example 301] are within 1.5-fold of each other in IC50: 15 nM for the first, 21 nM for the second.

Going from `Cc1cc(C(F)(F)F)ncc1-n1cc2c(=O)[nH]c(N3CC(F)(F)C3)nc2n1` [Example 99] to `COCc1cc(Cl)ccc1-n1cc2c(=O)[nH]c(N3CC(F)(F)C3)nc2n1` [Example 161], the IC50 falls from 82 nM to 22 nM (3.7-fold). The second is the more potent here.

First: Cc1cc(Br)cc(C)c1-n1cc2c(=O)[nH]c(N3CCc4cccnc43)nc2n1 [Example 340]
Second: Cc1cc(Br)cc(C)c1-n1cc2c(=O)[nH]c(N3C=COCC3)nc2n1 [Example 362]
The IC50 of the first is 180-fold higher: 470 nM for the first, 2.6 nM for the second. The second is the more potent here.

Going from `Cc1ccccc1-n1cc2c(=O)[nH]c(N3CCCCCC3)nc2n1` [Example 22] to `Cc1ccccc1-n1cc2c(=O)[nH]c(N3CCCCC3)nc2n1` [Example 15], the IC50 falls from 8200 nM to 1500 nM (5.5-fold).

Going from `CC(=O)N(C)c1nc2nn(-c3ccc(C)cc3C)cc2c(=O)[nH]1` [Example 66] to `COCCNc1nc2nn(-c3ccc(C)cc3C)cc2c(=O)[nH]1` [Example 60], the IC50 falls from 4300 nM to 240 nM (18-fold).

`Nc1cc(C(F)(F)F)cc(Cl)c1-n1cc2c(=O)[nH]c(N3CCOCC3)nc2n1` [Example 271] and `O=c1[nH]c(N2CCOCC2)nc2nn(-c3c(F)cc(Br)cc3C(F)(F)F)cc12` [Example 272] are within 1.5-fold of each other in IC50: 20 nM for the first, 22 nM for the second.

Compared with `Cc1cc(N2CCC2)cc(C)c1-n1cc2c(=O)[nH]c(N3CCOCC3)nc2n1` [Example 327], `Cc1cc(C(F)F)cc(C)c1-n1cc2c(=O)[nH]c(N3CCOCC3)nc2n1` [Example 329] is 1.8-fold lower in IC50: 80 nM for the first, 45 nM for the second. The second is the more potent here.

Compared with `O=c1[nH]c(N2CCOCC2)nc2nn(-c3ccc(Br)cc3CO)cc12` [Example 104], `Cc1cc(Br)ccc1-n1cc2c(=O)[nH]c(N3CCOCC3)nc2n1` [Example 69] is 5.8-fold lower in IC50: 140 nM for the first, 24 nM for the second. The second is the more potent here.

Compared with `Cc1cc(Cl)ccc1-n1cc2c(=O)[nH]c(N3CCCOCC3)nc2n1` [Example 165], `COCc1cc(Cl)ccc1-n1cc2c(=O)[nH]c(N3CCOCC3)nc2n1` [Example 143] is 2-fold higher in IC50: 29 nM for the first, 59 nM for the second.

Going from `Cc1cc(Br)ccc1-n1cc2c(=O)n(CC#N)c(N3CCOCC3)nc2n1` [Example 172] to `Cc1cc(Br)ccc1-n1cc2c(=O)n(CC#N)c(N3CCN(S(C)(=O)=O)CC3)nc2n1` [Example 173], the IC50 falls from 190 nM to 120 nM (1.6-fold). The second is the more potent here.

First: Cc1cc(C(F)F)cc(C)c1-n1cc2c(=O)[nH]c(N3C[C@H]4C[C@@H]3CO4)nc2n1 [Example 330]
Second: Cc1cc(OC(F)F)cc(C)c1-n1cc2c(=O)[nH]c(N3CCOCC3)nc2n1 [Example 298, 2-(4-(difluoromethoxy)-2,6-dimethylphenyl)-6-morpholino-2,5-dihydro-4H-pyrazolo[3,4-d]pyrimidin-4-one]
The IC50 of the first is 3-fold higher: 80 nM for the first, 27 nM for the second.

Going from `COC1CCN(c2nc3nn(-c4ccc(C)cc4C)cc3c(=O)[nH]2)C1` (racemic) [Example 56] to `COC1CN(c2nc3nn(-c4ccc(C)cc4C)cc3c(=O)[nH]2)C1` [Example 59], the IC50 rises from 190 nM to 370 nM (1.9-fold).

Going from `C[C@@H]1COCCN1c1nc2nn(-c3ccc(C4CC4)cc3C(F)(F)F)cc2c(=O)[nH]1` [Example 261] to `O=c1[nH]c(N2C[C@@H]3C[C@H]2CO3)nc2nn(-c3ccc(C4CC4)cc3C(F)(F)F)cc12` [Example 263], the IC50 rises from 5.5 nM to 8.6 nM (1.6-fold). The first is the more potent here.

Going from `Cc1ccc(-n2cc3c(=O)[nH]c(N4CCCC4)nc3n2)cc1C` [Example 52] to `Cc1cccc(-n2cc3c(=O)[nH]c(N4CCCC4)nc3n2)c1C` [Example 47], the IC50 falls from 2100 nM to 230 nM (9.1-fold). The second is the more potent here.

`O=c1[nH]c(N2CC(CCO)C2)nc2nn(-c3ccc(C(F)(F)F)cc3Cl)cc12` [Example 180] and `CS(=O)(=O)N1CCCN(c2nc3nn(-c4ccc(C(F)(F)F)cc4Cl)cc3c(=O)[nH]2)CC1` [Example 135] are within 1.5-fold of each other in IC50: 35 nM for the first, 43 nM for the second.

First: Cc1cc(Br)cc(C)c1-n1cc2c(=O)[nH]c(NC3COC3)nc2n1 [Example 274]
Second: Cc1cc(Br)cc(C)c1-n1cc2c(=O)[nH]c(N(CCO)CCO)nc2n1 [Example 361]
The IC50 of the first is 45-fold higher: 580 nM for the first, 13 nM for the second.

First: Cc1cc(Br)ccc1-n1cc2c(OCCO)nc(N3CCOCC3)nc2n1 [Example 153]
Second: CC(=O)c1cc(Br)ccc1-n1cc2c(=O)[nH]c(N3CCOCC3)nc2n1 [Example 131]
The IC50 of the first is 7.3-fold higher: 460 nM for the first, 63 nM for the second.

Compared with `Cc1ccccc1-n1cc2c(=O)[nH]c(N3CCOCC3)nc2n1` [Example 5], `Cc1ccccc1-n1cc2c(=O)[nH]c(N3CCOCC3C)nc2n1` (racemic) [Example 17] is 2-fold higher in IC50: 1400 nM for the first, 2800 nM for the second. The first is the more potent here.

Going from `Cc1cc(C2CC2)cc(Cl)c1-n1cc2c(=O)[nH]c(N3CC4CC(C3)O4)nc2n1` [Example 297] to `Cc1cc(C(F)(F)F)cc(C)c1-n1cc2c(=O)[nH]c(N3CC4CCC(C3)O4)nc2n1` [Example 295], the IC50 rises from 9.9 nM to 20 nM (2-fold).

Going from `O=c1[nH]c(N2CCOCC2)nc2nn(-c3ccc(Br)cc3OC3CCC3)cc12` [Example 305] to `O=c1[nH]c(N2CCOCC2)nc2nn(-c3ccc(Br)cc3C3CC3)cc12` [Example 196], the IC50 falls from 48 nM to 11 nM (4.4-fold). The second is the more potent here.

First: O=c1[nH]c(N2CCOCCO2)nc2nn(-c3ccc(Br)cc3C(F)(F)F)cc12 [Example 355]
Second: O=c1[nH]c(N2CCCC2)nc2nn(-c3ccccc3C(F)(F)F)cc12 [Example 8]
The IC50 of the first is 14-fold lower: 43 nM for the first, 590 nM for the second.

`Cc1cc(Br)ccc1-n1cc2c(=O)[nH]c(N3CCN(C4CC4)C(=O)C3)nc2n1` [Example 152] and `COCC1CN(c2nc3nn(-c4ccc(Br)cc4C)cc3c(=O)[nH]2)CCO1` (racemic) [Example 72] are within 1.5-fold of each other in IC50: 77 nM for the first, 52 nM for the second.

First: C=C(c1cc(C)c(-n2cc3c(=O)[nH]c(N4CCOCC4)nc3n2)c(C)c1)C(F)(F)F [Example 293]
Second: Cc1cc(C)c(-n2cc3c(=O)[nH]c(N4CCOCC4)nc3n2)c(Cl)c1 [Example 148]
The IC50 of the first is 15-fold higher: 290 nM for the first, 19 nM for the second. The second is the more potent here.

Going from `COC1CCCN(c2nc3nn(-c4c(C)cc(C)cc4C)cc3c(=O)[nH]2)C1` (racemic) [Example 108] to `COC1CN(c2nc3nn(-c4c(C)cccc4C)cc3c(=O)[nH]2)C1` [Example 50], the IC50 rises from 200 nM to 1200 nM (6-fold).

Compared with `Cc1cc(Br)cc(C)c1-n1cc2c(=O)[nH]c(N3C4CC3CN(S(C)(=O)=O)C4)nc2n1` [Example 221], `Cc1cc(C(F)(F)F)cc(C)c1-n1cc2c(=O)[nH]c(N3CCCC3)nc2n1` [Example 281] is 1.9-fold lower in IC50: 25 nM for the first, 13 nM for the second.

Going from `O=c1[nH]c(N2CCCC2)nc2nn(-c3ccccc3OC(F)(F)F)cc12` [Example 9] to `O=c1[nH]c(N2CCCC2)nc2nn(-c3ccc(C(F)(F)F)cc3)cc12` [Example 49], the IC50 falls from 1200 nM to 340 nM (3.5-fold). The second is the more potent here.

Going from `Cc1ccc(-n2nc3nc(N4CCCC4)[nH]c(=O)c3c2C)c(C)c1` [Example 55] to `CCOC1CCN(c2nc3nn(-c4ccc(C)cc4C)cc3c(=O)[nH]2)C1` (racemic) [Example 57], the IC50 falls from 230 nM to 150 nM (1.5-fold).

First: CCOC1CCN(c2nc3nn(-c4c(C)cccc4C)cc3c(=O)[nH]2)C1 (racemic) [Example 48]
Second: COC[C@H]1CCCN1c1nc2nn(-c3ccccc3C)cc2c(=O)[nH]1 [Example 41]
The IC50 of the first is 5-fold lower: 820 nM for the first, 4100 nM for the second.

Going from `Cc1cc(C)c(-n2cc3c(=O)[nH]c(N4CCN(C(=O)OC(C)(C)C)CC4)nc3n2)c(C)c1` [Example 101] to `Cc1cc(OC(F)F)cc(C)c1-n1cc2c(=O)[nH]c(N3CCOCC3=O)nc2n1` [Example 354], the IC50 rises from 5.6 nM to 220 nM (39-fold). The first is the more potent here.

First: Cc1c(Cl)ccc(-n2cc3c(=O)[nH]c(N4CCOCC4)nc3n2)c1C [Example 282]
Second: Cc1ccccc1-n1cc2c(=O)n(C)c(N3CCCC3)nc2n1 [Example 14]
The IC50 of the first is 40-fold lower: 180 nM for the first, 7200 nM for the second.

In the case of `O=c1[nH]c(N2C[C@H]3C[C@@H]2CO3)nc2nn(-c3ccc(C4CC4)cc3C(F)(F)F)cc12` [Example 262], the IC50 is reported as 9.8 nM.

same assay, conditions: IL-1β production in THP1-Null cells; test compound 0.0024 μM

First: Cc1cc(Br)cc(C)c1-n1cc2c(=O)[nH]c(NC3CC3)nc2n1 [Example 230]
Second: Cc1cc(Br)cc(C)c1-n1cc2c(=O)[nH]c(NC(C)C)nc2n1 [Example 235]
The inhibition at 0.0024 µM of the first is higher: 60% for the first, 52% for the second.

same assay, conditions: IL-1β production in THP1-Null cells; test compound 2.4 μM

Compared with `COc1ccc(CNc2cc(C(F)(F)F)cc(Cl)c2-n2cc3c(=O)[nH]c(N4CCOCC4)nc3n2)c(OC)c1` [Example 269], `Cc1cc(Br)cc(C)c1-n1cc2c(OC(F)F)nc(N3CCOCC3)nc2n1` [Example 332] is higher in inhibition at 2.4 µM: 25% for the first, 33% for the second.

same assay, conditions: IL-1β production in THP1-Null cells; test compound 24 μM

Compound `N#Cc1ccccc1-n1cc2c(=O)[nH]c(N3CCCC3)nc2n1` [Example 29] has an inhibition at 24 µM of 2%.

Reference: US20240287079A1, “6-AMINOPYRAZOLOPYRIMIDINE COMPOUND AND PHARMACEUTICAL USE THEREOF” (Japan Tobacco Inc., priority 2021, published 2024)
